Patent US6465221B1, “Method of producing a taxane-type diterpene” (Mitsui Chemicals, Inc., priority 1994, dated 2002)

Key:
Type in all cases: cell-based
[1] = tested on: cultured cells of Taxus baccata LINN; experiment: Taxus baccata cell culture with coronatines
Method: A part of stem of Taxus baccata LINN which had been previously sterilized with 2% antiformin solution or 70% ethanol solution or the like, was placed on solid Woody Plant Medium (containing gelan gum of 0.25% by weight) to which naphthalenacetic acid had been added to give the concentration of 10^−5 M, and static culture was carried out at 25 ° C. in a dark place to provide callus of Taxus baccata LINN. One gram (fresh weight) of the callus was inoculated to an Erlenmeyer flask containing 20 ml of liquid Woody Plant Medium to which the above-mentioned component was added to give the same concentration and shake culture was carried out with a rotary shaker (amplification of 25 mm, 120 rpm) and the callus was subcultured in every 21 days to accelerate the growth rate thereof.
One gram (fresh weight) of the cultured cells thus obtained was inoculated to an Erlenmeyer flask containing 20 ml of liquid Woody Plant Medium to which the above-mentioned component was added to give the same concentration, and shake culture was carried out at 25° C. for 14 days. On the 14th day after starting the culture, 50 μl of coronatine [formula (IV)] was added as coronatines to the culture medium to give the final concentration of 0.001-1000 μM and the culture was further carried out for another 7 days.
After completing the culture, cultured cells of Taxus baccata LINN were harvested by filtration and lyophilized, then the dry weight was measured to obtain the yeild of the cultured cells per liter of the liquid medium.

[2] = tested on: cultured cells of Taxus baccata LINN; experiment: Taxus baccata cell culture with cyclic polysaccharides and methyl ester of jasmonic acid; conditions: cyclic polysaccharide 10 mM + methyl ester of jasmonic acid 100 μM
Method: […] After completing the culture, cultured cells of Taxus baccata LINN were harvested by filtration and lyophilized, then the dry weight was measured to obtain the yeild thereof per liter of the liquid medium.

[3] = tested on: cultured cells of Taxus baccata LINN; experiment: Taxus baccata cell culture with fatty acids or natural oil; conditions: added fatty acid 100 μM; 14 days
Method: One gram (fresh weight) of the callus was inoculated to an Erlenmeyer flask containing 20 ml of liquid Woody Plant Medium and shake culture was carried out with a rotary shaker (amplification of 25 mm, 100 rpm) and the callus was subcultured in every 21 days to accelerate the growth rate thereof.

[4] = tested on: cultured cells of Taxus media; experiment: Taxus media cell culture with derivatives of jasmonic acids
Method: A part of germ of Taxus media which had been previously sterilized with 2% antiformin solution or 70% ethanol solution or the like, was placed on solid Woody Plant Medium (containing gelan gum of 0.25% by weight) to which naphthalenacetic acid had been added to give the concentration of 10^−5 M, and static culture was carried out at 25° C. in a dark place to provide callus of Taxus media. One gram (fresh weight) of the callus was inoculated to an Erlenmeyer flask containing 20 ml of liquid Woody Plant Medium to which above-mentioned component was added to give the same concentration, the and shake culture was carried out with a rotary shaker (amplification of 25 mm, 100 rpm) and the callus was subcultured in every 14 days to accelerate the growth rate thereof.
Two grams (fresh weight) of the cultured cells thus obtained was inoculated to an Erlenmeyer flask containing 20 ml of liquid Woody Plant […], and the culture was further carried out for another 14 days.
After completing the culture, cultured cells of Taxus media were harvested by filtration and lyophilized, then the dry weight was measured to obtain the yield of the cultured cells per liter of the liquid medium.

[5] = concentration of coronatines 1 μM
[6] = concentration of coronatines 10 μM
[7] = concentration of derivative of jasmonic acids 0.001 μM
[8] = concentration of derivative of jasmonic acids 0.01 μM
[9] = concentration of derivative of jasmonic acids 0.1 μM
[10] = concentration of derivative of jasmonic acids 1 μM
[11] = concentration of derivative of jasmonic acids 10 μM
[12] = concentration of derivative of jasmonic acids 100 μM
[13] = concentration of derivative of jasmonic acids 1000 μM

`CCC1C=C(C(=O)NC(C(=O)O)C(C)C)C2CCC(=O)C2C1` (centres unmarked) [Example 8, N-coronafacoylvaline] was tested, and the “yield of baccatin III” value [1, 5] was 25.0 mg/L, the yield of cephalomannine [1, 5] was 9.2 mg/L and the “yield of cultured cells” value [1, 5] was 18.1 g/L. The yield of taxol [1, 5] was 51.1 mg/L.

`CC[C@H]1C=C(C(=O)N[C@@]2(C(=O)OC)C[C@@H]2CC)[C@H]2CCC(=O)[C@H]2C1` [Example 9, methyl ester of coronatine] was tested, and the “yield of baccatin III” value [1, 5] was 4.6 mg/L, the yield of cephalomannine [1, 5] was 6.6 mg/L and the “yield of cultured cells” value [1, 5] was 19.5 g/L. For the same compound, the yield of taxol [1, 5] was 11.3 mg/L.

`CCC1C=C(C(=O)O)C2CCC(=O)C2C1` (centres unmarked) [Example 10, coronafacic acid] was tested, and the “yield of baccatin III” value [1, 6] was 12.4 mg/L, the yield of cephalomannine [1, 6] was 3.0 mg/L and the “yield of cultured cells” value [1, 6] was 18.6 g/L. The yield of taxol [1, 6] was 6.2 mg/L.

For `CC[C@H]1C=C(C(=O)OC)[C@H]2CCC(=O)[C@H]2C1` [Example 11, methyl ester of coronafacic acid], the “yield of baccatin III” value [1, 6] was 8.4 mg/L, the yield of cephalomannine [1, 6] was 5.1 mg/L and the “yield of cultured cells” value [1, 6] was 19.2 g/L.

For `OC[C@H]1O[C@@H]2O[C@H]3[C@H](O)[C@@H](O)[C@@H](O[C@H]4[C@H](O)[C@@H](O)[C@@H](O[C@H]5[C@H](O)[C@@H](O)[C@@H](O[C@H]6[C@H](O)[C@@H](O)[C@@H](O[C@H]7[C@H](O)[C@@H](O)[C@@H](O[C@H]1[C@H](O)[C@H]2O)O[C@@H]7CO)O[C@@H]6CO)O[C@@H]5CO)O[C@@H]4CO)O[C@@H]3CO` [Example 23, α-cyclodextrin], the “yield of baccatin III” value [2] was 55.7 mg/L, the yield of cephalomannine [2] was 7.5 mg/L and the “yield of cultured cells” value [2] was 16.6 g/L. The yield of taxol [2] was 46.0 mg/L.

For `OC[C@H]1O[C@@H]2O[C@H]3[C@H](O)[C@@H](O)[C@@H](O[C@H]4[C@H](O)[C@@H](O)[C@@H](O[C@H]5[C@H](O)[C@@H](O)[C@@H](O[C@H]6[C@H](O)[C@@H](O)[C@@H](O[C@H]7[C@H](O)[C@@H](O)[C@@H](O[C@H]8[C@H](O)[C@@H](O)[C@@H](O[C@H]9[C@H](O)[C@@H](O)[C@@H](O[C@H]1[C@H](O)[C@H]2O)O[C@@H]9CO)O[C@@H]8CO)O[C@@H]7CO)O[C@@H]6CO)O[C@@H]5CO)O[C@@H]4CO)O[C@@H]3CO` [Example 24, γ-cyclodextrin], the “yield of baccatin III” value [2] was 85.2 mg/L, the yield of cephalomannine [2] was 8.5 mg/L and the “yield of cultured cells” value [2] was 17.5 g/L. For the same compound, the yield of taxol [2] was 45.2 mg/L.

`CCCCCCCC/C=C\CCCCCCCC(=O)O` [Example 27, oleic acid] was tested, and the yield of cells [3] was 20 g/L, the “yield of taxane-type diterpenes, baccatin III” value [3] was 2 mg/L and the “yield of taxane-type diterpenes, cephalomannine” value [3] was 4 mg/L. For the same compound, the “yield of taxane-type diterpenes, taxol” value [3] was 9 mg/L.

With `CCCCC/C=C\C/C=C\CCCCCCCC(=O)O` [Example 28, linolic acid] the yield of cells [3] was 20 g/L, the “yield of taxane-type diterpenes, baccatin III” value [3] was 2 mg/L and the “yield of taxane-type diterpenes, cephalomannine” value [3] was 5 mg/L. For the same compound, the “yield of taxane-type diterpenes, taxol” value [3] was 7 mg/L.

`CCCCC/C=C\C/C=C\C/C=C\C/C=C\CCCC(=O)O` [Example 29, arachidonic acid] was tested, and the yield of cells [3] was 20 g/L, the “yield of taxane-type diterpenes, baccatin III” value [3] was 2 mg/L and the “yield of taxane-type diterpenes, cephalomannine” value [3] was 3 mg/L. For the same compound, the “yield of taxane-type diterpenes, taxol” value [3] was 6 mg/L.

With `CC/C=C\CC1C(=NO)CCC1CC(=O)OC` (centres unmarked) [Example 32] the “yield of cultured cells” value [4, 7] was 22.0 g/L, the “yield of taxane-type diterpenes, baccatin III” value [4, 7] was 6.7 mg/L and the “yield of taxane-type diterpenes, cephalomannine” value [4, 7] was 3.2 mg/L. For the same compound, the “yield of taxane-type diterpenes, taxol” value [4, 7] was 16.7 mg/L, the “yield of cultured cells” value [4, 8] was 21.1 g/L and the “yield of taxane-type diterpenes, baccatin III” value [4, 8] was 6.8 mg/L. For the same compound, the “yield of taxane-type diterpenes, cephalomannine” value [4, 8] was 3.6 mg/L, the “yield of taxane-type diterpenes, taxol” value [4, 8] was 20.2 mg/L and the “yield of cultured cells” value [4, 9] was 20.2 g/L. The “yield of taxane-type diterpenes, baccatin III” value [4, 9] was 7.5 mg/L, the “yield of taxane-type diterpenes, cephalomannine” value [4, 9] was 4.0 mg/L and the “yield of taxane-type diterpenes, taxol” value [4, 9] was 24.1 mg/L. The “yield of cultured cells” value [4, 10] was 19.5 g/L, the “yield of taxane-type diterpenes, baccatin III” value [4, 10] was 8.5 mg/L and the “yield of taxane-type diterpenes, cephalomannine” value [4, 10] was 4.2 mg/L. The “yield of taxane-type diterpenes, taxol” value [4, 10] was 34.5 mg/L, the “yield of cultured cells” value [4, 11] was 18.3 g/L and the “yield of taxane-type diterpenes, baccatin III” value [4, 11] was 13.5 mg/L. For the same compound, the “yield of taxane-type diterpenes, cephalomannine” value [4, 11] was 6.3 mg/L, the “yield of taxane-type diterpenes, taxol” value [4, 11] was 56.2 mg/L and the “yield of cultured cells” value [4, 12] was 16.4 g/L. For the same compound, the “yield of taxane-type diterpenes, baccatin III” value [4, 12] was 20.1 mg/L, the “yield of taxane-type diterpenes, cephalomannine” value [4, 12] was 9.2 mg/L and the “yield of taxane-type diterpenes, taxol” value [4, 12] was 78.0 mg/L. The “yield of cultured cells” value [4, 13] was 14.0 g/L, the “yield of taxane-type diterpenes, baccatin III” value [4, 13] was 9.3 mg/L and the “yield of taxane-type diterpenes, cephalomannine” value [4, 13] was 3.5 mg/L. The “yield of taxane-type diterpenes, taxol” value [4, 13] was 17.2 mg/L.

For `CC/C=C\CC1/C(=N\OC)CCC1CC(=O)OC` (centres unmarked) [Example 33], the “yield of cultured cells” value [4, 12] was 16.1 g/L, the “yield of taxane-type diterpenes, baccatin III” value [4, 12] was 18.0 mg/L and the “yield of taxane-type diterpenes, cephalomannine” value [4, 12] was 5.2 mg/L. The “yield of taxane-type diterpenes, taxol” value [4, 12] was 65.3 mg/L.

`CC/C=C\CC1C(=NN)CCC1CC(=O)OC` (centres unmarked) [Example 34] was tested, and the “yield of cultured cells” value [4, 12] was 16.7 g/L, the “yield of taxane-type diterpenes, baccatin III” value [4, 12] was 16.5 mg/L and the “yield of taxane-type diterpenes, cephalomannine” value [4, 12] was 6.6 mg/L. The “yield of taxane-type diterpenes, taxol” value [4, 12] was 55.0 mg/L.

In the case of `CC/C=C\CC1/C(=N\NC(N)=O)CCC1CC(=O)OC` (centres unmarked) [Example 35], the “yield of cultured cells” value [4, 12] is reported as 15.3 g/L, the “yield of taxane-type diterpenes, baccatin III” value [4, 12] is reported as 17.2 mg/L and the “yield of taxane-type diterpenes, cephalomannine” value [4, 12] is reported as 5.0 mg/L. The “yield of taxane-type diterpenes, taxol” value [4, 12] was 56.3 mg/L.

With `CC/C=C\CC1/C(=N\NC=O)CCC1CC(=O)OC` (centres unmarked) [Example 36] the “yield of cultured cells” value [4, 12] was 17.2 g/L, the “yield of taxane-type diterpenes, baccatin III” value [4, 12] was 18.5 mg/L and the “yield of taxane-type diterpenes, cephalomannine” value [4, 12] was 6.2 mg/L. The “yield of taxane-type diterpenes, taxol” value [4, 12] was 79.5 mg/L.

With `CC/C=C\CC1C(=NNS(C)(=O)=O)CCC1CC(=O)OC` (centres unmarked) [Example 37] the “yield of cultured cells” value [4, 12] was 17.1 g/L, the “yield of taxane-type diterpenes, baccatin III” value [4, 12] was 15.3 mg/L and the “yield of taxane-type diterpenes, cephalomannine” value [4, 12] was 5.9 mg/L. For the same compound, the “yield of taxane-type diterpenes, taxol” value [4, 12] was 73.3 mg/L.

In the case of `CC/C=C\CC1C(=NC#N)CCC1CC(=O)OC` (centres unmarked) [Example 38], the “yield of cultured cells” value [4, 12] is reported as 14.3 g/L, the “yield of taxane-type diterpenes, baccatin III” value [4, 12] is reported as 14.5 mg/L and the “yield of taxane-type diterpenes, cephalomannine” value [4, 12] is reported as 5.0 mg/L. For the same compound, the “yield of taxane-type diterpenes, taxol” value [4, 12] was 82.9 mg/L.

`CC/C=C\CC1C(=NS(N)(=O)=O)CCC1CC(=O)OC` (centres unmarked) [Example 39] was tested, and the “yield of cultured cells” value [4, 12] was 17.1 g/L, the “yield of taxane-type diterpenes, baccatin III” value [4, 12] was 19.0 mg/L and the “yield of taxane-type diterpenes, cephalomannine” value [4, 12] was 7.5 mg/L. The “yield of taxane-type diterpenes, taxol” value [4, 12] was 85.0 mg/L.

In the case of `CC/C=C\CC1C(CC(=O)OC)CCC1NO` (centres unmarked) [Example 40], the “yield of cultured cells” value [4, 12] is reported as 16.2 g/L, the “yield of taxane-type diterpenes, baccatin III” value [4, 12] is reported as 14.2 mg/L and the “yield of taxane-type diterpenes, cephalomannine” value [4, 12] is reported as 5.5 mg/L. For the same compound, the “yield of taxane-type diterpenes, taxol” value [4, 12] was 73.3 mg/L.
